The supplement of paper PMC11451515

Legend:
Details in all cases: 48 h
[1] = tested on: NOMO1; assay: AUC of viability dose-response curve (% viability x log10 dose units); higher = less sensitive
In short: (§1)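 Leukemia cells adapted to each medium (500 or 1000 cells/well, 1536-well plates) were exposed to library compounds in DMSO for 48 h at 37°C at 11 threefold doses, 47 μM to 0.79 nM. Luminescence by CellTiter-Glo One was normalised per plate to DMSO and cell-free wells, then fitted with a four-parameter log-logistic curve on log10 dose. Curves above full viability were scaled and quality-control failures removed before area under the curve was integrated by trapezoidal rule.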

[2] = tested on: P12-Ichikawa; assay: as above
In short: as §1

[3] = tested on: SEM cells; assay: as above
In short: as §1

[4] = tested on: NOMO1; assay: cell viability relative to DMSO control; higher = less cytotoxic
In short: (§2)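 Viability values are per-plate percentages of DMSO wells, with background from cell-free wells. Library compounds in DMSO were pin-dosed, in an 11-point threefold series from 47 μM to 0.79 nM, onto NOMO1 or SEM (500 cells/well) or P12-Ichikawa (1000 cells/well) leukemia cells in 1536-well plates (5 μl). Those cells had been adapted for at least four passages in each medium, and CellTiter-Glo One luminescence was read after 48 h at 37°C.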

[5] = tested on: P12-Ichikawa; assay: as above
In short: as §2

[6] = tested on: SEM cells; assay: as above
In short: as §2

O=C1\C=C/C[C@@H]2[C@H]3CCCN4CCC[C@@H](CN12)[C@@H]34
AUC of viability dose-response curve
Details | [1] | [2] | [3]
HPLM + 10% dialyzed FBS | 456 | 473 | 465
RPMI 5 mM glucose + 10% FBS | 442 | 429 | 441
RPMI 5 mM glucose + 10% dialyzed FBS | 448 | 469 | 476

cell viability [%]
Details | [4] | [5] | [6]
HPLM + 10% dialyzed FBS, 0.000781 µM | 116 | 98.2 | 109
HPLM + 10% dialyzed FBS, 0.00234 µM | 110 | 103 | 113
HPLM + 10% dialyzed FBS, 0.00702 µM | 117 | 107 | 111
HPLM + 10% dialyzed FBS, 0.0211 µM | 106 | 101 | 112
HPLM + 10% dialyzed FBS, 0.0632 µM | 125 | 108 | 99.6
HPLM + 10% dialyzed FBS, 0.19 µM | 107 | 99.2 | 105
HPLM + 10% dialyzed FBS, 0.569 µM | 101 | 98.1 | 117
HPLM + 10% dialyzed FBS, 1.71 µM | 107 | 104 | 112
HPLM + 10% dialyzed FBS, 5.12 µM | 121 | 98.9 | 93.4
HPLM + 10% dialyzed FBS, 15.4 µM | 89.2 | 99.1 | 102
HPLM + 10% dialyzed FBS, 46.1 µM | 104 | 89.6 | 101
RPMI 5 mM glucose + 10% FBS, 0.000781 µM | 90.2 | 103 | 90.8
RPMI 5 mM glucose + 10% FBS, 0.00234 µM | 94.3 | 116 | 77.1
RPMI 5 mM glucose + 10% FBS, 0.00702 µM | 97.1 | 109 | 103
RPMI 5 mM glucose + 10% FBS, 0.0211 µM | 90.9 | 101 | 108
RPMI 5 mM glucose + 10% FBS, 0.0632 µM | 95.4 | 98.5 | 101
RPMI 5 mM glucose + 10% FBS, 0.19 µM | 93 | 94.8 | 59.3
RPMI 5 mM glucose + 10% FBS, 0.569 µM | 93.4 | 98.5 | 99.5
RPMI 5 mM glucose + 10% FBS, 1.71 µM | 85.9 | 85.7 | 107
RPMI 5 mM glucose + 10% FBS, 5.12 µM | 91.8 | 93.5 | 87.1
RPMI 5 mM glucose + 10% FBS, 15.4 µM | 93 | 96.8 | 88.6
RPMI 5 mM glucose + 10% FBS, 46.1 µM | 93.4 | 89.7 | 95.7
RPMI 5 mM glucose + 10% dialyzed FBS, 0.000781 µM | 106 | 102 | 89.1
RPMI 5 mM glucose + 10% dialyzed FBS, 0.00234 µM | 107 | 98.5 | 108
RPMI 5 mM glucose + 10% dialyzed FBS, 0.00702 µM | 103 | 97.8 | 101
RPMI 5 mM glucose + 10% dialyzed FBS, 0.0211 µM | 116 | 105 | 115
RPMI 5 mM glucose + 10% dialyzed FBS, 0.0632 µM | 94.1 | 98.4 | 108
RPMI 5 mM glucose + 10% dialyzed FBS, 0.19 µM | 104 | 94 | 81.8
RPMI 5 mM glucose + 10% dialyzed FBS, 0.569 µM | 90.3 | 105 | 106
RPMI 5 mM glucose + 10% dialyzed FBS, 1.71 µM | 106 | 95.7 | 118
RPMI 5 mM glucose + 10% dialyzed FBS, 5.12 µM | 105 | 100 | 105
RPMI 5 mM glucose + 10% dialyzed FBS, 15.4 µM | 98.9 | 94.3 | 98.9
RPMI 5 mM glucose + 10% dialyzed FBS, 46.1 µM | 86.6 | 86.8 | 92.2
